Where no end group is shown, it is not given here.

One data set in a line: half-life of αCT1. Format: in vitro ADME. Conditions: cell culture treatment.
A further data set has as its system U87MG cells. Kind of data set: MTS cell viability assay. It is filed as cell-based, human. Conditions: 20 μM TGX-221/50 μM TMZ plus αCT1. The procedure: Cell viability was measured by the MTS assay. P values were determined using the student t test or one-way ANOVA. Error bars represent three independent experiments.
Cell viability was determined using the MTS viability assay. The vehicle DMSO was the control and set as 100%. Treated cells were normalized to DMSO-treated cells. […] (FIG. 43D) Scores of Excess Over Bliss in FIG. 43C calculated using the Bliss Independence model. One-way ANOVA and student t test were used to determine statistical significance.
Cell viability was determined by the MTS cell viability assay (Promega) as described previously 21,24-27. In brief, 250 to 1,000 cells were plated in the wells of a 96-well plate-based upon the cell growth rate. Because the drug treatment usually takes 6-7 days, fast-growing cells could be over-grown if plated at a high cell density. For αCT1 treatment experiments, Applicant intended to plate cells at a low density to minimize the formation of gap junctions, and thus, more Cx43-hemichannels can be present. […] At each hour time point, the absorbance at 490 nm was measured using a FilterMax F3 microplate reader (Molecular Devices, LLC) according to the manufacturer's instructions. Percent cell viability was obtained by dividing the absorbance of treatment groups to those of untreated and respective vehicle control groups.

A further data set relates to p110β^hyper cells. Kind of data set: melanoma cell viability (CellTiter Blue). Format: cell-based. Conditions: 50 μM Selectide-18, 6 days, daily repeated dosing. The procedure: (§1) (FIG. 49A) Immunoblotting of p110s and signaling molecules. 3-actin (ACTB) was used as the loading control. (FIG. 49B) Summary of genetic mutations and protein levels in melanoma cells. Information regarding hot spot mutations was retrieved from e.g., DepMap. (FIG. 49C) Cells were treated with 0-40 μM of inhibitors. Cell viability was measured using CellTiter Blue. IC50s were calculated using Graphpad.
(§2) (FIG. 52A) Cells were treated with 10 μM Selectide-18-FITC for 1 h and imaged immediately or after 96h. (FIG. 52B) Selectide-18-FITC in melanoma cells were imaged at different times. FITC was quantified using Image J and FITC intensities at different times were normalized with that at 1 h. Half-life was calculated using GraphPad. (FIG. 52C) UACC-62, MelST, or MeWo cells were treated with 50 μM of Selectide-18 for 4 days with daily repeated dosing. (FIG. 52D) MelST or melanoma cells were treated with 50 μM of Selectide-18 for 6 days with daily repeated dosing. Cell viability was measured using Cell-Titer Blue. (FIG. 52E) MelST, UACC-62, or MeWo cells were treated with Scramble or Selectide-18 at different doses. IC50s were calculated using GraphPad. (FIG. 52F) Nod scid mice bearing UACC-62 subcutaneous tumors were treated with Selectide-18 (3 mg/kg) intratumoral injection/daily) for 16 days. Tumors were measured using a caliper and tumor volumes were calculated as (length×width2))/2. Student t test or ANOVA was used to determine P values. ns: not significant; **: P<0.01; ***P<0.001.

Another data set relates to MDA-MB-435S cells. As to the kind of experiment: melanoma cell viability (CellTiter Blue). It is filed as cell-based. The note with it: 50 μM, 6 days, daily repeated dosing. The procedure:
as §1, §2

Another data set has as its system other melanoma cells. Kind of data set: melanoma cell viability (CellTiter Blue). Format: cell-based. Conditions: 50 μM Selectide-18, 6 days, daily repeated dosing. The procedure:
as §2

Another data set concerns PI3K in MelST cells. As to the kind of experiment: PI3K activity after Selectide-18. Format: cell-based. Conditions: 50 μM, 4 days, daily repeated dosing. On the procedure: as §2
A further data set relates to PI3K in UACC-62 cells. As to the kind of experiment: PI3K activity after Selectide-18. Format: cell-based. Conditions: 50 μM, 4 days, daily repeated dosing. The procedure:
as §2

A further data set deals with PI3K in MeWo cells. As to the kind of experiment: PI3K activity after Selectide-18. Format: cell-based. The note with it: 50 μM, 4 days, daily repeated dosing. The procedure: as §2
The subject of another data set is melanocyte MelST. Format: cell-based. The procedure: (FIG. 49A) Immunoblotting of p110s and signaling molecules. 3-actin (ACTB) was used as the loading control. (FIG. 49B) Summary of genetic mutations and protein levels in melanoma cells. Information regarding hot spot mutations was retrieved from e.g., DepMap. […] Cell viability was measured using CellTiter Blue. IC50s were calculated using Graphpad.
as §2, with “Student t test or ANOVA was used to determine P values. ns: not significant; **: P<0.01; ***P<0.001.” left out

The nature of data set [1]: uptake and intracellular half-life of Selectide-18-FITC. Format: cell-based. The note with it: human, SKMEL-147 melanoma cells (intracellular); FITC intensity normalized to 1 h; read-out: half-life (HL) in cells (converted). On the procedure: as §2
The nature of data set [2]: intracellular half-life of Selectide-18-FITC. Conditions: human, UACC-62 melanoma cells (intracellular); FITC intensity normalized to 1 h; read-out: half-life (HL) in cells (converted). Format: cell-based. The procedure:
as §2

The test system of another data set is UACC-62 xenografts. Kind of data set: UACC-62 subcutaneous xenograft. Format: in vivo, Nod scid mice. The note with it: 3 mg/kg, intratumoral injection daily, 16 days. On the procedure: as §2

Turning to RQPKIWFPNRRKPWKKRPRPDDLEI [αCT1], the half-life in the data set “half-life of αCT1” was approximately 48 h. In addition, the “cytotoxic effect of TMZ/TGX-221 double combination upon addition of αCT1” value in the data set with U87MG cells is on record as “greatly increased the cytotoxic effect”.
Regarding TKKSTKTINPSKYQTIRK [Selectide-18], the cell viability entry is given as “suppressed the viability” in the data set with p110β^hyper cells and “without affecting” in the data set with other melanoma cells. The “sensitivity to Selectide-18” value in the data set with MDA-MB-435S cells is “sensitive”. In addition, the figures for the PI3K activity result in the data set on PI3K in MelST cells, in the data set on PI3K in UACC-62 cells and with PI3K in MeWo cells were “not”, “inactivated PI3K” and “not”, respectively. In addition, the IC50 in the data set with melanocyte MelST is approximately 2000 µM. Besides, the half-life was 138 h in data set [1] and 77 h in data set [2]. Also, in the data set with UACC-62 xenografts, the “in vivo growth of xenografts” value was “blocked the in vivo growth”.

The record behind these values is patent US20240075093A1, “COMPOSITIONS AND METHODS OF TREATING A PI3K MEDIATED DISEASE” (VIRGINIA TECH INTELLECTUAL PROPERTIES, INC., priority 2020, published 2024).
